Ki and IC25 data for 18 compounds are collected here from patent publication US20240067639A1, “SMALL MOLECULES THAT TARGET THE RNA THAT CAUSES ALS” (EXPANSION THERAPEUTICS, INC., priority 2020, published 2024).

Assay [1] has as its target biotinylated r(G4C2)8 RNA and hnRNP H1-His6. In words: TR-FRET hnRNP H binding assay. Conditions: Table D. The procedure:
TR-FRET hnRNP H Binding Assay. The TR-FRET assays were performed as previously described (Disney et al., 2012) except the final concentrations of biotinylated r(G4C2)8 (SEQ ID NO: 2) RNA and hnRNP H1-His6 were 80 nM and 75 nM, respectively. The RNA was folded by heating to 95° C. for 5 min in 1× Folding Buffer followed by slowly cooling to room temperature. The buffer was adjusted to 1×TR-FRET Assay Buffer followed by addition of compound. The mixture was incubated for 15 min at room temperature and then hnRNP H1-His6 was added. After an additional 15 min incubation, streptavidin-XL665 (HTRF, Cisbio Bioassays) and anti-His6-Tb (HTRF, Cisbio Bioassays) were added to a final concentration of 40 nM and 0.44 ng/μL, respectively. After incubating for 1 h, TR-FRET was measured as previously described. The IC50s were either calculated by fitting the equation (1) in Graphpad Prism.
Background: Time-resolved FRET reads energy transfer from a long-lived donor to a nearby acceptor.

The subject of assay [2] is RAN translation of (G4C2)66-No ATG-GFP in HEK293T cells. In words: Cell-based assay of RAN translation inhibition (GFP/mCherry reporter). Conditions: Homo sapiens, HEK-293T, 24 h, Table D; HEK293T, 24 h treatment; read-out: RANT IC25.

One may read the Ki as the equilibrium dissociation constant of an inhibitor or competing ligand from its target. One may read the IC25 as the point of the concentration-response curve where the effect stands at 25%. In the case of `COc1ccc2c(c1)c1cc3cnccc3c(C)c1n2C` [Compound 1, 9-methoxy-5,6-dimethyl-6H-pyrido[4,3-b]carbazole], the Ki in assay [1] was above 200 µM. For the same compound, the IC25 in assay [2] is above 5 µM. As for `Cc1c2ccncc2cc2c3cc(OCC4=NCCN4)ccc3n(C)c12` [Compound 3, 9-((4,5-dihydro-1H-imidazol-2-yl)methoxy)-5,6-dimethyl-6H-pyrido[4,3-b] carbazole], the affinity in assay [1] corresponds to a Ki of 8.3 µM. Moreover, the IC25 in assay [2] was determined as 0.1 µM. The like results for `Cc1c2ccncc2cc2c3cc(OCC(=O)NCCN)ccc3n(C)c12` [Compound 4a, N-(2-aminoethyl)-2-((5,6-dimethyl-6H-pyrido[4,3-b]carbazol-9-yl)oxy)acetamide] were, in that order, 4.5 µM and 0.9 µM. The like results for `Cc1c2ccncc2cc2c3cc(OCCN(C)C)ccc3n(C)c12` [Compound 5] were, in that order, 20 µM and 0.5 µM. `Cc1c2ccncc2cc2c3cc(OCCCN(C)C)ccc3n(C)c12` [Compound 6, 3-((5,6-dimethyl-6H-pyrido[4,3-b]carbazol-9-yl)oxy)-N,N-dimethylpropan-1-amine]: in assay [1], the Ki came to 32 µM. Also, the concentration for an effect of 25% (IC25) in assay [2] is above 5 µM. In assay [1], `Cc1c2ccncc2cc2c3cc(OCCCN4CCOCC4)ccc3n(C)c12` [Compound 8, 4-(3-((5,6-dimethyl-6H-pyrido[4,3-b]carbazol-9-yl)oxy)propyl)morpholine] registered a Ki of 11 µM. Besides, in assay [2], the 25% effect concentration (IC25) was found to be 0.36 µM. In assay [1], `Cc1c2ccncc2cc2c3cc(OCC(=N)N)ccc3n(C)c12` [Example 45, 2-((5,6-dimethyl-6H-pyrido[4,3-b]carbazol-9-yl)oxy)acetimidamide] yielded a Ki of 21 µM.

In the case of `Cn1c2ccc(OCCN3CCOCC3)cc2c2cc3cnccc3cc21` [Example 46, 4-[2-(6-methylpyrido[4,3-b]carbazol-9-yl)oxyethyl]morpholine], the Ki in assay [1] was found to be 4.6 µM. Still for that read-out and setting: the value for `COc1ccc2[nH]c3c(c2c1)C(=O)c1cnccc1C3=O` [Example 47, 9-methoxy-5H-pyrido[4,3-b]carbazole-5,11(6H)-dione] was above 200 µM; that for `COc1ccc2[nH]c3c(C)c4ccncc4c(O)c3c2c1` [Example 48, 9-methoxy-5-methyl-6H-pyrido[4,3-b]carbazol-11-ol] was above 200 µM. Still for that read-out and setting: the value for `COc1ccc2[nH]c3c(C)c4cnccc4cc3c2c1` [Example 49, 7-methoxy-11-methyl-10H-pyrido[3,4-b]carbazole] was above 200 µM; that for `Cc1c2ccncc2cc2c3ccc(OCCN4CCOCC4)cc3n(C)c12` [Example 53, 4-(2-((5,6-dimethyl-6H-pyrido[4,3-b]carbazol-8-yl)oxy)ethyl)morpholine] was above 200 µM; that for `Cc1c2ccncc2cc2c3cc(OCC(=O)NCCCN(C)C)ccc3n(C)c12` [Example 58, 2-((5,6-dimethyl-6H-pyrido[4,3-b]carbazol-9-yl)oxy)-N-(3(dimethylamino)propyl)-acetamide] was 1 µM. On the same count and under the same terms, as for `Cc1c2ccncc2cc2c3cc(OCC(=O)NCCN(C)C)ccc3n(C)c12` [Example 59, 2-((5,6-dimethyl-6H-pyrido[4,3-b]carbazol-9-yl)oxy)-N-(2-(dimethylamino)ethyl)-acetamide], the figure is 1.3 µM; as for `COc1cccc2c1c1cc3c(C(=O)N[C@H](C)CN(C)C)nccc3c(C)c1n2C` [Example 65, (R)—N-(1-(dimethylamino)propan-2-yl)-10-methoxy-5,6-dimethyl-6H-pyrido[4,3-b]carbazole-1-carboxamide], 4.2 µM; as for `COc1ccc2oc3c(C)c4ccncc4cc3c2c1` [Example 66, 9-methoxy-5-methyl-benzofuro[2,3-g]isoquinoline], above 200 µM. `COc1ccc2sc3c(C)c4ccncc4cc3c2c1` [Example 67, 9-methoxy-5-methyl-benzothiopheno[2,3-g]isoquinoline]: the Ki in assay [1] is above 200 µM. Same read-out and setting: as for `Cc1c2ccncc2cc2c1sc1ccc(OCCN3CCOCC3)cc12` [Example 81, 4-[2-(5-methylbenzothiopheno[2,3-g]isoquinolin-9-yl)oxyethyl]morpholine], the figure is above 200 µM.
